Source: PubChem BioAssay (NCI)
Several values for one entry are separate records, joined by “and”; a condition that tells them apart may be missing. Equal entries are not always repeated.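 Protocol summary: plate cells (96-well), add compound at 5 concentrations, incubate 48 h, interpolate endpoints linearly. At the GI50, growth is halved. TGI is the concentration that stops growth completely.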

Tests used:
Experiment in all cases: inhibition of tumour cell growth, NCI panel, 48 h
[1] = test system: UACC-62 melanoma
[2] = test system: OVCAR-5 ovarian
[3] = test system: SW-620 colon
[4] = test system: HOP-18 NSCLC
[5] = test system: SNB-19 CNS
[6] = test system: DU-145 prostate
[7] = test system: SNB-78 CNS
[8] = test system: MALME-3M melanoma
[9] = test system: EKVX NSCLC
[10] = test system: HCC-2998 colon
[11] = test system: MOLT-4 leukemia
[12] = test system: HS 578T breast
[13] = test system: CCRF-CEM leukemia
[14] = test system: SN12C renal
[15] = test system: TK-10 renal
[16] = test system: CAKI-1 renal
[17] = test system: 786-0 renal
[18] = test system: HT29 colon
[19] = test system: ACHN renal
[20] = test system: MDA-N
[21] = test system: DLD-1 colon
[22] = test system: RPMI-8226 leukemia
[23] = test system: PC-3 prostate
[24] = test system: A549 NSCLC
[25] = test system: MDA-MB-231 breast
[26] = test system: SK-MEL-28 melanoma
[27] = test system: HOP-62 NSCLC
[28] = test system: K-562 leukemia
[29] = test system: BT-549 breast
[30] = test system: IGROV1 ovarian
[31] = test system: T-47D breast
[32] = test system: UACC-257 melanoma
[33] = test system: SK-MEL-2 melanoma
[34] = test system: SNB-75 CNS
[35] = test system: NCI-H226 lung
[36] = test system: OVCAR-8 ovarian
[37] = test system: NCI-H460 lung
[38] = test system: COLO 205 colon
[39] = test system: KM20L2 colon
[40] = test system: SF-268 CNS
[41] = test system: U251 CNS
[42] = test system: M19-MEL melanoma
[43] = test system: A498 renal
[44] = test system: HL-60(TB) leukemia
[45] = test system: NCI-H23 lung
[46] = test system: DMS 114 small cell lung
[47] = test system: SK-MEL-5 melanoma
[48] = test system: SF-539 CNS
[49] = test system: KM12 colon
[50] = test system: DMS 273 small cell lung
[51] = test system: LOX IMVI melanoma
[52] = test system: SF-295 CNS
[53] = test system: OVCAR-3 ovarian
[54] = test system: HCT-15 colon
[55] = test system: UO-31 renal
[56] = test system: NCI-H522 lung
[57] = test system: SK-OV-3 ovarian
[58] = test system: RXF 393 renal

COc1ccc(/C=C\c2cc(OC)c(OC)c(OC)c2)cc1OP(=O)(O)O
TGI [1]: > 100 µM and 50 µM and > 64.3 µM
TGI [2]: > 100 µM
TGI [3]: > 100 µM and 50 µM
GI50 [4]: > 100 µM
TGI [4]: > 100 µM
TGI [5]: > 100 µM
GI50 [6]: 0.609 µM
TGI [6]: 0.356 µM and 0.371 µM
TGI [7]: > 100 µM and 50 µM
TGI [8]: > 100 µM and 24.5 µM and > 89 µM
TGI [9]: > 100 µM and 50 µM
GI50 [10]: 0.929 µM
TGI [11]: > 100 µM and 50 µM
GI50 [12]: 13.2 µM
TGI [13]: > 100 µM
TGI [14]: > 100 µM and 50 µM
TGI [15]: > 100 µM
TGI [16]: > 67.5 µM and 50 µM and > 100 µM
TGI [17]: > 100 µM
GI50 [18]: 0.486 µM and 3.89 µM
TGI [19]: > 100 µM and 50 µM and > 65 µM
GI50 [20]: < 0.0001 µM
TGI [21]: > 100 µM and 50 µM
TGI [22]: 25.1 µM and 50 µM and > 100 µM
TGI [23]: > 100 µM
TGI [24]: > 100 µM and 50 µM
TGI [25]: > 12.1 µM
TGI [26]: > 100 µM and 50 µM
GI50 [27]: 11.9 µM
TGI [27]: > 100 µM and 50 µM and > 76.1 µM
TGI [28]: 50 µM and > 100 µM
TGI [29]: > 100 µM
TGI [30]: > 100 µM and 50 µM
GI50 [31]: 20.7 µM
TGI [32]: 88.9 µM and 50 µM and > 100 µM
TGI [33]: 0.0169 µM and 0.0953 µM
TGI [34]: 50 µM and > 100 µM

CC(C)OP(=O)(OC(C)C)C(N(C)C)P(=O)(OC(C)C)OC(C)C.[Cl][Sn]([Cl])([Cl])[c]1ccccc1
GI50 [35]: 2.05 µM
TGI [35]: 9.69 µM
GI50 [36]: 3.16 µM
TGI [36]: 13.2 µM
GI50 [37]: 2.15 µM
TGI [37]: 29.6 µM
GI50 [38]: 2.1 µM
TGI [38]: 12.5 µM
GI50 [2]: 4.37 µM
TGI [2]: 49.1 µM
GI50 [3]: 3.26 µM
TGI [3]: 22.3 µM
GI50 [39]: 2.32 µM
TGI [39]: 15.8 µM
GI50 [40]: 2.9 µM
TGI [40]: 31.7 µM
GI50 [4]: > 100 µM
TGI [4]: > 100 µM
GI50 [41]: 4.47 µM
TGI [41]: > 100 µM
GI50 [5]: 17.8 µM
TGI [5]: > 100 µM
GI50 [42]: 2.61 µM
TGI [42]: 6.79 µM
GI50 [7]: 8.01 µM
TGI [7]: > 100 µM
GI50 [8]: 2.82 µM
TGI [8]: 8.2 µM
GI50 [43]: 14.2 µM
TGI [43]: 89.8 µM
GI50 [9]: 3.49 µM
TGI [9]: 52.5 µM
GI50 [10]: 1.79 µM
TGI [10]: 7.46 µM
GI50 [11]: 1.97 µM
TGI [11]: 7.39 µM
GI50 [44]: 1.63 µM
TGI [44]: 4.84 µM
GI50 [45]: 4.84 µM
TGI [45]: 31.3 µM
GI50 [13]: 2.07 µM
TGI [13]: 18.6 µM
GI50 [14]: 4.13 µM
TGI [14]: > 100 µM
GI50 [46]: 3.68 µM
TGI [46]: 23.1 µM
GI50 [15]: 14.4 µM
TGI [15]: > 100 µM
GI50 [47]: 1.65 µM
TGI [47]: 3.16 µM
GI50 [48]: 3.46 µM
TGI [48]: 15.1 µM
GI50 [16]: 3.7 µM
TGI [16]: > 100 µM
GI50 [49]: 3.6 µM
TGI [49]: > 100 µM
GI50 [17]: 2.84 µM
TGI [17]: 12.3 µM
GI50 [18]: 0.923 µM
TGI [18]: 12.8 µM
GI50 [19]: 3.3 µM
TGI [19]: > 100 µM
GI50 [50]: 2.67 µM
TGI [50]: 10.6 µM
GI50 [51]: 2.26 µM
TGI [51]: 6.97 µM
GI50 [52]: 4.15 µM
TGI [52]: 9.98 µM
GI50 [53]: 5.64 µM
TGI [53]: 53 µM
GI50 [21]: 2.89 µM
TGI [21]: > 100 µM
GI50 [22]: 1.84 µM
TGI [22]: 5 µM
GI50 [54]: 3.11 µM
TGI [54]: > 100 µM
GI50 [24]: 2.21 µM
TGI [24]: 5.28 µM
GI50 [55]: 4.12 µM
TGI [55]: > 100 µM
GI50 [56]: 3.02 µM
TGI [56]: 9.78 µM
GI50 [57]: 3.67 µM
TGI [57]: 17.3 µM
GI50 [26]: 5.01 µM
TGI [26]: 75.4 µM
GI50 [27]: 2.08 µM
TGI [27]: 7.34 µM
GI50 [28]: 2.26 µM
TGI [28]: 5.62 µM
GI50 [30]: 3.61 µM
TGI [30]: 92.7 µM
GI50 [32]: 2.79 µM
TGI [32]: 8.95 µM
GI50 [58]: 2.81 µM
TGI [58]: 11.4 µM
GI50 [33]: 2.15 µM
TGI [33]: 5.3 µM
GI50 [34]: 4.01 µM
TGI [34]: 39.5 µM
